Reference: ChEMBL document CHEMBL1201862, “PubChem BioAssay data set” (2004)
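A five-concentration, 48-hour dose response in 96-well plates underlies each endpoint, interpolated linearly between surrounding concentrations. GI50 = concentration required for 50% inhibition of growth.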 The source made the active and inactive calls. No stated cut-off is given here; in the data, active = GI50 up to about 1.1 µM and inactive = higher.

Key:
Experiment in all cases: NCI anticancer screen, dose series, 48 h
SF-295 = system: SF-295
UO-31 = system: UO-31
KM12 = system: KM12
OVCAR-8 = system: OVCAR-8
UACC-257 = system: UACC-257
786-0 = system: 786-0
DMS-273 = system: DMS-273
DLD-1 = system: DLD-1
NCI-H226 = system: NCI-H226
SR = system: SR
Malme-3M = system: Malme-3M
LOX IMVI = system: LOX IMVI
HT-29 = system: HT-29
HOP-62 = system: HOP-62
M14 = system: M14
SNB-19 = system: SNB-19
SK-MEL-2 = system: SK-MEL-2
OVCAR-5 = system: OVCAR-5
HOP-92 = system: HOP-92
SW-620 = system: SW-620
KM-20L2 = system: KM-20L2
A549 = system: A549
SK-MEL-28 = system: SK-MEL-28
SF-539 = system: SF-539
LXFL 529 = system: LXFL 529
XF498 = system: XF498
SN12C = system: SN12C
UACC-62 = system: UACC-62
K562 = system: K562
HCT-15 = system: HCT-15
EKVX = system: EKVX
OVCAR-3 = system: OVCAR-3
SNB-75 = system: SNB-75
DMS-114 = system: DMS-114
HL-60 = system: HL-60
MOLT-4 = system: MOLT-4
SK-OV-3 = system: SK-OV-3
NCI-H522 = system: NCI-H522
RXF 393 = system: RXF 393
SF-268 = system: SF-268
ACHN = system: ACHN
U-251 = system: U-251
CCRF-CEM = system: CCRF-CEM
HCC 2998 = system: HCC 2998
NCI-H460 = system: NCI-H460
HCT-116 = system: HCT-116
SK-MEL-5 = system: SK-MEL-5
RPMI-8226 = system: RPMI-8226
M19-MEL = system: M19-MEL
NCI-H23 = system: NCI-H23
SNB-78 = system: SNB-78
TK-10 = system: TK-10
CAKI-1 = system: CAKI-1
COLO 205 = system: COLO 205
OVCAR-4 = system: OVCAR-4
IGROV-1 = system: IGROV-1
A498 = system: A498

Compound: N#Cc1ccc(Nc2cnc3ccc(N)cc3n2)cc1
- GI50 (SF-295): > 100 µM (inactive)
- GI50 (UO-31): > 100 µM (inactive)
- GI50 (KM12): > 100 µM (inactive)
- GI50 (OVCAR-8): > 100 µM (inactive)
- GI50 (UACC-257): > 100 µM (inactive)
- GI50 (786-0): > 100 µM (inactive)
- GI50 (DMS-273): > 100 µM (inactive)
- GI50 (DLD-1): > 100 µM (inactive)
- GI50 (NCI-H226): > 100 µM (inactive)
- GI50 (SR): 91.4 µM (inactive)
- GI50 (Malme-3M): > 100 µM (inactive)
- GI50 (LOX IMVI): > 100 µM (inactive)
- GI50 (HT-29): > 100 µM (inactive)
- GI50 (HOP-62): > 100 µM (inactive)
- GI50 (M14): > 100 µM (inactive)
- GI50 (SNB-19): > 100 µM (inactive)
- GI50 (SK-MEL-2): > 100 µM (inactive)
- GI50 (OVCAR-5): > 100 µM (inactive)
- GI50 (HOP-92): > 100 µM (inactive)
- GI50 (SW-620): > 100 µM (inactive)
- GI50 (KM-20L2): > 100 µM (inactive)
- GI50 (A549): > 100 µM (inactive)
- GI50 (SK-MEL-28): > 100 µM (inactive)
- GI50 (SF-539): > 100 µM (inactive)
- GI50 (LXFL 529): > 100 µM (inactive)
- GI50 (XF498): > 100 µM (inactive)
- GI50 (SN12C): > 100 µM (inactive)
- GI50 (UACC-62): > 100 µM (inactive)
- GI50 (K562): > 100 µM (inactive)
- GI50 (HCT-15): > 100 µM
- GI50 (EKVX): > 100 µM (inactive)
- GI50 (OVCAR-3): > 100 µM (inactive)
- GI50 (SNB-75): > 100 µM (inactive)
- GI50 (DMS-114): > 100 µM (inactive)
- GI50 (HL-60): > 100 µM (inactive)
- GI50 (MOLT-4): > 100 µM (inactive)
- GI50 (SK-OV-3): > 100 µM (inactive)
- GI50 (NCI-H522): > 100 µM (inactive)
- GI50 (RXF 393): > 100 µM (inactive)
- GI50 (SF-268): > 100 µM (inactive)
- GI50 (ACHN): > 100 µM (inactive)
- GI50 (U-251): > 100 µM (inactive)
- GI50 (CCRF-CEM): > 100 µM (inactive)
- GI50 (HCC 2998): > 100 µM (inactive)
- GI50 (NCI-H460): > 100 µM (inactive)
- GI50 (HCT-116): > 100 µM (inactive)
- GI50 (SK-MEL-5): > 100 µM (inactive)
- GI50 (RPMI-8226): > 100 µM (inactive)
- GI50 (M19-MEL): > 100 µM (inactive)
- GI50 (NCI-H23): > 100 µM (inactive)
- GI50 (SNB-78): > 100 µM (inactive)
- GI50 (TK-10): > 100 µM (inactive)
- GI50 (CAKI-1): > 100 µM (inactive)
- GI50 (COLO 205): > 100 µM (inactive)
- GI50 (OVCAR-4): > 100 µM (inactive)

Compound: CS(=O)(=O)C1(Br)S(=O)(=O)OCCOS1(=O)=O
- GI50 (SF-295): > 100 µM (inactive)
- GI50 (UO-31): > 100 µM (inactive)
- GI50 (OVCAR-8): > 100 µM (inactive)
- GI50 (UACC-257): > 100 µM (inactive)
- GI50 (786-0): > 100 µM (inactive)
- GI50 (DMS-273): > 100 µM (inactive)
- GI50 (DLD-1): > 100 µM (inactive)
- GI50 (IGROV-1): > 100 µM (inactive)
- GI50 (NCI-H226): > 100 µM (inactive)
- GI50 (SR): > 100 µM (inactive)
- GI50 (Malme-3M): > 100 µM (inactive)
- GI50 (LOX IMVI): > 100 µM (inactive)
- GI50 (HT-29): > 100 µM (inactive)
- GI50 (HOP-62): > 100 µM (inactive)
- GI50 (M14): > 100 µM (inactive)
- GI50 (SNB-19): > 100 µM (inactive)
- GI50 (SK-MEL-2): > 100 µM (inactive)
- GI50 (OVCAR-5): > 100 µM (inactive)
- GI50 (HOP-92): > 100 µM (inactive)
- GI50 (SW-620): > 100 µM (inactive)
- GI50 (KM-20L2): > 100 µM (inactive)
- GI50 (A549): > 100 µM (inactive)
- GI50 (SK-MEL-28): > 100 µM (inactive)
- GI50 (SF-539): > 100 µM (inactive)
- GI50 (LXFL 529): > 100 µM (inactive)
- GI50 (XF498): > 100 µM (inactive)
- GI50 (SN12C): > 100 µM (inactive)
- GI50 (UACC-62): > 100 µM (inactive)
- GI50 (K562): > 100 µM (inactive)
- GI50 (HCT-15): > 100 µM
- GI50 (EKVX): > 100 µM (inactive)
- GI50 (OVCAR-3): > 100 µM (inactive)
- GI50 (SNB-75): > 100 µM (inactive)
- GI50 (DMS-114): > 100 µM (inactive)
- GI50 (HL-60): > 100 µM (inactive)
- GI50 (MOLT-4): > 100 µM (inactive)
- GI50 (SK-OV-3): > 100 µM (inactive)
- GI50 (NCI-H522): > 100 µM (inactive)
- GI50 (RXF 393): > 100 µM (inactive)
- GI50 (SF-268): > 100 µM (inactive)
- GI50 (ACHN): > 100 µM (inactive)
- GI50 (A498): > 100 µM (inactive)
- GI50 (U-251): > 100 µM (inactive)
- GI50 (CCRF-CEM): > 100 µM (inactive)
- GI50 (HCC 2998): > 100 µM (inactive)
- GI50 (NCI-H460): > 100 µM (inactive)
- GI50 (HCT-116): > 100 µM (inactive)
- GI50 (SK-MEL-5): > 100 µM (inactive)
- GI50 (RPMI-8226): > 100 µM (inactive)
- GI50 (M19-MEL): > 100 µM (inactive)
- GI50 (NCI-H23): > 100 µM (inactive)
- GI50 (SNB-78): > 100 µM (inactive)
- GI50 (TK-10): > 100 µM (inactive)
- GI50 (COLO 205): > 100 µM (inactive)
- GI50 (OVCAR-4): > 100 µM (inactive)
